pIC50: −log10 of the molar value.
Molecular target: T1, Phosphatidylinositol 4,5-bisphosphate 3-kinase catalytic subunit gamma isoform (Homo sapiens, UniProt P48736)
Test: Inhibition of PI3Kgamma (unknown origin) in […] stimulated human THP-1 cells assessed as reduction in Akt phosphorylation level at Ser473 residue preincubated for 60 mins followed by rhMCP-1 stimulation and measured after 2 mins by AlphaLisa assay
Type: cell-based
Details: not given

T1 sequence (P48736 whole entry, canonical isoform): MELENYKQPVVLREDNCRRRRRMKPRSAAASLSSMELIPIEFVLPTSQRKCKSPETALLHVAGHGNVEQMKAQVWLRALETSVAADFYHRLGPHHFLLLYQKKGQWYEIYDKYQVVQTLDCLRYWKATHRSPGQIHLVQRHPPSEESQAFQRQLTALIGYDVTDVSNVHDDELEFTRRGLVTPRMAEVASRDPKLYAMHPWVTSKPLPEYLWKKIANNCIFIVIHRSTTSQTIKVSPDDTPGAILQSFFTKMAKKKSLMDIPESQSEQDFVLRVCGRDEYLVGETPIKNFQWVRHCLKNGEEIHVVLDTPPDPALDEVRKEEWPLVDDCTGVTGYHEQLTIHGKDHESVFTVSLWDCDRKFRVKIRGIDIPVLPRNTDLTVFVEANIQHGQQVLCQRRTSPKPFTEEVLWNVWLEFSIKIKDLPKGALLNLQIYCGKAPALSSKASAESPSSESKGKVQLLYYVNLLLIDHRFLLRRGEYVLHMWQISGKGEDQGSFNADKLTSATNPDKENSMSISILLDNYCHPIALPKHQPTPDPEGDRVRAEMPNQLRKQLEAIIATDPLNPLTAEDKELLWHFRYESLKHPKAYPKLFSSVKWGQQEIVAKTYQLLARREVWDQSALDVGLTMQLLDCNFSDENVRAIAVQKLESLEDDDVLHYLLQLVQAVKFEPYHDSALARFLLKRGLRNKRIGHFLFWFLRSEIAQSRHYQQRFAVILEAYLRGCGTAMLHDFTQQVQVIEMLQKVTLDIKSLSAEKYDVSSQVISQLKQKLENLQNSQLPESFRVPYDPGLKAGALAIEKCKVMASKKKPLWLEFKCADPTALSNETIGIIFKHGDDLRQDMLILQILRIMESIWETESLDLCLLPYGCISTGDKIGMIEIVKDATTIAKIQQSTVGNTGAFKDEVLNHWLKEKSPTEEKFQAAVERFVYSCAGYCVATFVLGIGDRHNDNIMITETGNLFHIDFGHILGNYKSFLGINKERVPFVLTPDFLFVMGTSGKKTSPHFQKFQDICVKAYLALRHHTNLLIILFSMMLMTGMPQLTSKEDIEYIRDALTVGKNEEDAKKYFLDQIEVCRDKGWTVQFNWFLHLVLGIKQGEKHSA

SMILES | pIC50
Cc1cc(-c2ccn3nc(N)c(C(=O)NC4CC4)c3n2)cc2c1C(=O)N(CC1CC1)C2 | 6.59
COc1cc(-c2ccn3nc(N)c(C(=O)NC4CC4)c3n2)cc2c1C(=O)N([C@@H](C)C1CC1)C2 | 6.92
CC(C)[C@H](N1Cc2cc(-c3ccn4nc(N)c(C(=O)NC5CC5)c4n3)cc(NS(C)(=O)=O)c2C1=O)C(F)(F)F | 6.82

More lines, now with the values ahead:

pIC50 | SMILES
7.06 | CS(=O)(=O)Nc1cc(-c2ccn3nc(N)c(C(=O)NC4CC4)c3n2)cc2c1C(=O)N([C@@H](C1CC1)C(F)(F)F)C2
6.10 | Cc1cc(-c2ccn3nc(N)c(C(=O)NC4CC4)c3n2)cc2c1C(=O)N([C@@H](C1CC1)C(F)(F)F)C2
7.27 | CC(C)c1cc(-c2ccn3nc(N)c(C(=O)NC4CC4)c3n2)cc2c1C(=O)N([C@@H](C)C1CC1)C2

Molecular target: T1, Phosphatidylinositol 4,5-bisphosphate 3-kinase catalytic subunit gamma isoform
Test: Inhibition of PI3Kgamma (unknown origin) using PIP2 as substrate preincubated for 1 hr followed by substrate addition and measured after 60 mins in presence of ATP by ADP-glo assay
Details: not given

SMILES | pIC50
Cc1cc(-c2ccn3nc(N)c(C(=O)NC4CC4)c3n2)cc2c1C(=O)N(CC1CC1)C2 | 8.00
COc1cc(-c2ccn3nc(N)c(C(=O)NC4CC4)c3n2)cc2c1C(=O)N([C@@H](C)C1CC1)C2 | 8.42
CC(C)[C@H](N1Cc2cc(-c3ccn4nc(N)c(C(=O)NC5CC5)c4n3)cc(NS(C)(=O)=O)c2C1=O)C(F)(F)F | 8.07

Next, values leading:

pIC50 | SMILES
8.77 | CS(=O)(=O)Nc1cc(-c2ccn3nc(N)c(C(=O)NC4CC4)c3n2)cc2c1C(=O)N([C@@H](C1CC1)C(F)(F)F)C2
7.75 | Cc1cc(-c2ccn3nc(N)c(C(=O)NC4CC4)c3n2)cc2c1C(=O)N([C@@H](C1CC1)C(F)(F)F)C2
8.34 | CC(C)c1cc(-c2ccn3nc(N)c(C(=O)NC4CC4)c3n2)cc2c1C(=O)N([C@@H](C)C1CC1)C2

System: not listed separately
Test: Metabolic stability in human hepatocytes assessed as intrinsic clearance per 10^6 cells at 0.5 uM by LC-MS/MS analysis
Type: ADME, cell-based, Hepatocyte
Details: read-out: CLH

SMILES | hepatocyte CLint at 0.5 µM [µL/min/1e6 cells]
COc1cc(-c2ccn3nc(N)c(C(=O)NC4CC4)c3n2)cc2c1C(=O)N([C@@H](C)C1CC1)C2 | 1.81
CC(C)[C@H](N1Cc2cc(-c3ccn4nc(N)c(C(=O)NC5CC5)c4n3)cc(NS(C)(=O)=O)c2C1=O)C(F)(F)F | 6.52

Second part, the molecule after the results:

hepatocyte CLint at 0.5 µM [µL/min/1e6 cells] | SMILES
< 1.2 | CS(=O)(=O)Nc1cc(-c2ccn3nc(N)c(C(=O)NC4CC4)c3n2)cc2c1C(=O)N([C@@H](C1CC1)C(F)(F)F)C2
< 1.2 | CC(C)c1cc(-c2ccn3nc(N)c(C(=O)NC4CC4)c3n2)cc2c1C(=O)N([C@@H](C)C1CC1)C2

System: not listed separately
Test: Metabolic stability in rat hepatocyte assessed as intrinsic clearance per 10^8 cells at 0.5 uM by LC-MS/MS analysis
Type: ADME, cell-based
Details: hepatocytes

SMILES | hepatocyte intrinsic clearance [µL/min]
COc1cc(-c2ccn3nc(N)c(C(=O)NC4CC4)c3n2)cc2c1C(=O)N([C@@H](C)C1CC1)C2 | 2.07
CC(C)[C@H](N1Cc2cc(-c3ccn4nc(N)c(C(=O)NC5CC5)c4n3)cc(NS(C)(=O)=O)c2C1=O)C(F)(F)F | 3.65

Other lines, results leading:

hepatocyte intrinsic clearance [µL/min] | SMILES
< 1.2 | CS(=O)(=O)Nc1cc(-c2ccn3nc(N)c(C(=O)NC4CC4)c3n2)cc2c1C(=O)N([C@@H](C1CC1)C(F)(F)F)C2
2.41 | CC(C)c1cc(-c2ccn3nc(N)c(C(=O)NC4CC4)c3n2)cc2c1C(=O)N([C@@H](C)C1CC1)C2

Molecular target: Phosphatidylinositol 4,5-bisphosphate 3-kinase catalytic subunit alpha isoform (Homo sapiens, UniProt P42336)
Test: Inhibition of PI3Kalpha (unknown origin) using PIP2 as substrate preincubated for 1 hr followed by substrate addition and measured after 60 mins in presence of ATP by ADP-glo assay
Details: not given

Phosphatidylinositol 4,5-bisphosphate 3-kinase catalytic subunit alpha isoform, sequence (P42336 whole entry, canonical isoform): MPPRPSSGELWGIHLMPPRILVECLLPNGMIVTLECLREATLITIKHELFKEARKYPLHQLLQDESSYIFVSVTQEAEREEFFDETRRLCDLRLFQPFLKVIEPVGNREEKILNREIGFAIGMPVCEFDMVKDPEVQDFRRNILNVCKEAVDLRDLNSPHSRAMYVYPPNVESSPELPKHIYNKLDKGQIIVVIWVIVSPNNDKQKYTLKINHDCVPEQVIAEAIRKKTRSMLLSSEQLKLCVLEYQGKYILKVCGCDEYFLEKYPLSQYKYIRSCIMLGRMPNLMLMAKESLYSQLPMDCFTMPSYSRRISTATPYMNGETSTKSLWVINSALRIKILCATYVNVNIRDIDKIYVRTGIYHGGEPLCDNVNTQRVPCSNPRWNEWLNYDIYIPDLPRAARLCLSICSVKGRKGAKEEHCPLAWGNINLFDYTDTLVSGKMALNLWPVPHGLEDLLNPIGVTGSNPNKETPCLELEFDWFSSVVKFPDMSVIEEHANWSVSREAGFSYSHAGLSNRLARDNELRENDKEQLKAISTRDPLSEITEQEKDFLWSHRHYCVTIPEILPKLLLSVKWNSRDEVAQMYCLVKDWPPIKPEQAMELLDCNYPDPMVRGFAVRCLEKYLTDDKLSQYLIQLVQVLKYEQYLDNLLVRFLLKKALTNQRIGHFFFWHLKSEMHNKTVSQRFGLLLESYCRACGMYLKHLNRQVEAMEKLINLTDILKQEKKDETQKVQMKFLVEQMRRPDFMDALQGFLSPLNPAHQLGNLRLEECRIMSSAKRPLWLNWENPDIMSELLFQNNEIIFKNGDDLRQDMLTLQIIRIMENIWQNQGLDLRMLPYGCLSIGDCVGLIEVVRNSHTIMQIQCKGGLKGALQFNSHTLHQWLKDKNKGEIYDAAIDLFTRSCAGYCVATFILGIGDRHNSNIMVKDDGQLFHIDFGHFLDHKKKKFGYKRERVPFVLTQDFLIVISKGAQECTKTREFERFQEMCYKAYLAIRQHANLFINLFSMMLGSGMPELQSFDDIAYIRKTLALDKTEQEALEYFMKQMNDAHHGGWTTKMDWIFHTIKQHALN

SMILES | pIC50
Cc1cc(-c2ccn3nc(N)c(C(=O)NC4CC4)c3n2)cc2c1C(=O)N(CC1CC1)C2 | 6.37
COc1cc(-c2ccn3nc(N)c(C(=O)NC4CC4)c3n2)cc2c1C(=O)N([C@@H](C)C1CC1)C2 | 6.55
CC(C)[C@H](N1Cc2cc(-c3ccn4nc(N)c(C(=O)NC5CC5)c4n3)cc(NS(C)(=O)=O)c2C1=O)C(F)(F)F | 5.43

Other lines, results leading:

pIC50 | SMILES
5.27 | CS(=O)(=O)Nc1cc(-c2ccn3nc(N)c(C(=O)NC4CC4)c3n2)cc2c1C(=O)N([C@@H](C1CC1)C(F)(F)F)C2
< 5.00 | Cc1cc(-c2ccn3nc(N)c(C(=O)NC4CC4)c3n2)cc2c1C(=O)N([C@@H](C1CC1)C(F)(F)F)C2
6.00 | CC(C)c1cc(-c2ccn3nc(N)c(C(=O)NC4CC4)c3n2)cc2c1C(=O)N([C@@H](C)C1CC1)C2

Molecular target: T2, Phosphatidylinositol 4,5-bisphosphate 3-kinase catalytic subunit delta isoform (Homo sapiens, UniProt O00329)
T2 sequence (O00329 whole entry): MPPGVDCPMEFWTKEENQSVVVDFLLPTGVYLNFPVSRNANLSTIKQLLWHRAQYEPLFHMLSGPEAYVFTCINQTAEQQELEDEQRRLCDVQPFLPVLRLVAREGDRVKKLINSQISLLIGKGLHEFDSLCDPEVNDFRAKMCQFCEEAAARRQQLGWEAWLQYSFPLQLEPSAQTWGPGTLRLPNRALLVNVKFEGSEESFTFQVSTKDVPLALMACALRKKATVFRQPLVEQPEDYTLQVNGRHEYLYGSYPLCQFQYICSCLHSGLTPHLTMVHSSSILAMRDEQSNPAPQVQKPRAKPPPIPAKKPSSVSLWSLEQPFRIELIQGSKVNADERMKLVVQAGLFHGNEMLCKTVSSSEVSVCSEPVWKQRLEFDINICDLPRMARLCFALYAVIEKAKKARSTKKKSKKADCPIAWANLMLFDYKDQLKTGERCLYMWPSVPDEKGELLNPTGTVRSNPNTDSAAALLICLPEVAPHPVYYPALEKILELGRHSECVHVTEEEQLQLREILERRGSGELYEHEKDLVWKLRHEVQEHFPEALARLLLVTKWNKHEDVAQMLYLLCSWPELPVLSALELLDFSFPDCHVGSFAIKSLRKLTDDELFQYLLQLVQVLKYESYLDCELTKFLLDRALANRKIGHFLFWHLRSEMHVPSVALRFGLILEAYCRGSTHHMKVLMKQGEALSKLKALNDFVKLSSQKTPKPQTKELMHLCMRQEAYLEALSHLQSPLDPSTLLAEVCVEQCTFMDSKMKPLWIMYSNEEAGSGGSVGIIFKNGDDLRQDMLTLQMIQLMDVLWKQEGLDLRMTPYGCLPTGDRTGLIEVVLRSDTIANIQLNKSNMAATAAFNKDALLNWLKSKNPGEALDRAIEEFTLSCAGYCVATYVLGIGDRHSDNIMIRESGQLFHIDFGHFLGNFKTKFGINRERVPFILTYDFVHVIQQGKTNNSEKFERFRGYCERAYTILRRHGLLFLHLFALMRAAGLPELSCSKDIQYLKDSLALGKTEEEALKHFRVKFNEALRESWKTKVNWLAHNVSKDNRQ
Test: Inhibition of PI3Kdelta (unknown origin) using PIP2 as substrate preincubated for 1 hr followed by substrate addition and measured after 60 mins in presence of ATP by ADP-glo assay
Details: not given

SMILES | pIC50
Cc1cc(-c2ccn3nc(N)c(C(=O)NC4CC4)c3n2)cc2c1C(=O)N(CC1CC1)C2 | 6.04
COc1cc(-c2ccn3nc(N)c(C(=O)NC4CC4)c3n2)cc2c1C(=O)N([C@@H](C)C1CC1)C2 | 6.34
CC(C)[C@H](N1Cc2cc(-c3ccn4nc(N)c(C(=O)NC5CC5)c4n3)cc(NS(C)(=O)=O)c2C1=O)C(F)(F)F | 5.56

Second part, the molecule after the results:

pIC50 | SMILES
5.34 | CS(=O)(=O)Nc1cc(-c2ccn3nc(N)c(C(=O)NC4CC4)c3n2)cc2c1C(=O)N([C@@H](C1CC1)C(F)(F)F)C2
< 5.00 | Cc1cc(-c2ccn3nc(N)c(C(=O)NC4CC4)c3n2)cc2c1C(=O)N([C@@H](C1CC1)C(F)(F)F)C2
5.83 | CC(C)c1cc(-c2ccn3nc(N)c(C(=O)NC4CC4)c3n2)cc2c1C(=O)N([C@@H](C)C1CC1)C2

Species on record: Homo sapiens
Test: Selectivity ratio of IC50 for inhibition of PI3Kalpha (unknown origin) to IC50 for inhibition of PI3Kgamma (unknown origin)
Details: not given

SMILES | Ratio IC50
Cc1cc(-c2ccn3nc(N)c(C(=O)NC4CC4)c3n2)cc2c1C(=O)N(CC1CC1)C2 | 42
COc1cc(-c2ccn3nc(N)c(C(=O)NC4CC4)c3n2)cc2c1C(=O)N([C@@H](C)C1CC1)C2 | 74

Continued, values first:

Ratio IC50 | SMILES
> 566 | Cc1cc(-c2ccn3nc(N)c(C(=O)NC4CC4)c3n2)cc2c1C(=O)N([C@@H](C1CC1)C(F)(F)F)C2
220 | CC(C)c1cc(-c2ccn3nc(N)c(C(=O)NC4CC4)c3n2)cc2c1C(=O)N([C@@H](C)C1CC1)C2

Species on record: Homo sapiens
Test: Selectivity ratio of IC50 for inhibition of PI3Kdelta (unknown origin) to IC50 for inhibition of PI3Kgamma (unknown origin)
Details: not given

SMILES | Ratio IC50
Cc1cc(-c2ccn3nc(N)c(C(=O)NC4CC4)c3n2)cc2c1C(=O)N(CC1CC1)C2 | 84
COc1cc(-c2ccn3nc(N)c(C(=O)NC4CC4)c3n2)cc2c1C(=O)N([C@@H](C)C1CC1)C2 | 122
CC(C)[C@H](N1Cc2cc(-c3ccn4nc(N)c(C(=O)NC5CC5)c4n3)cc(NS(C)(=O)=O)c2C1=O)C(F)(F)F | 323

More lines, now with the values ahead:

Ratio IC50 | SMILES
2780 | CS(=O)(=O)Nc1cc(-c2ccn3nc(N)c(C(=O)NC4CC4)c3n2)cc2c1C(=O)N([C@@H](C1CC1)C(F)(F)F)C2
> 566 | Cc1cc(-c2ccn3nc(N)c(C(=O)NC4CC4)c3n2)cc2c1C(=O)N([C@@H](C1CC1)C(F)(F)F)C2
322 | CC(C)c1cc(-c2ccn3nc(N)c(C(=O)NC4CC4)c3n2)cc2c1C(=O)N([C@@H](C)C1CC1)C2

Molecular target: CYP3A4 (Homo sapiens, UniProt P08684)
Test: in vitro
Details: human liver microsomes, probe midazolam
Description: Time dependent inhibition of CYP3A4 in human liver microsomes at 10 uM using midazolam as substrate preincubated for 30 mins in presence of NADPH by LC/MS/MS analysis relative to control

CYP3A4, sequence (P08684 whole entry): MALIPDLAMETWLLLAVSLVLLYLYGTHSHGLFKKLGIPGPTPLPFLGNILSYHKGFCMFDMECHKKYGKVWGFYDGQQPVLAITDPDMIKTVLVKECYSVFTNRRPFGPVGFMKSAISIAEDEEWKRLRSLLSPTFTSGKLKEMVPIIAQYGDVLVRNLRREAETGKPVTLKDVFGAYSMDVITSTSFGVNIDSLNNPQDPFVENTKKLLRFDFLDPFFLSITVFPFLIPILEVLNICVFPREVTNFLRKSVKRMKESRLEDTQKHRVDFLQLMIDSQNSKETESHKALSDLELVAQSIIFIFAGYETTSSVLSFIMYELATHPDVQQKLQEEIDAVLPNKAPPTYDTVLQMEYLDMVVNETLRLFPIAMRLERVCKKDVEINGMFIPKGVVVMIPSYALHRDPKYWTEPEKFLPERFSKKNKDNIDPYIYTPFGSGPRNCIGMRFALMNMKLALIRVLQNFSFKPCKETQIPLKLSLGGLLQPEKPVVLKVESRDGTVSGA

SMILES | inhibition at 30 min, 10 µM [%]
COc1cc(-c2ccn3nc(N)c(C(=O)NC4CC4)c3n2)cc2c1C(=O)N([C@@H](C)C1CC1)C2 | 28
CC(C)[C@H](N1Cc2cc(-c3ccn4nc(N)c(C(=O)NC5CC5)c4n3)cc(NS(C)(=O)=O)c2C1=O)C(F)(F)F | 55

Now from value to molecule:

inhibition at 30 min, 10 µM [%] | SMILES
22 | CS(=O)(=O)Nc1cc(-c2ccn3nc(N)c(C(=O)NC4CC4)c3n2)cc2c1C(=O)N([C@@H](C1CC1)C(F)(F)F)C2
28 | CC(C)c1cc(-c2ccn3nc(N)c(C(=O)NC4CC4)c3n2)cc2c1C(=O)N([C@@H](C)C1CC1)C2
